Reference: patent publication US8871753B2, “Macrocyclic compounds and their use as kinase inhibitors” (Incyte Corporation, priority 2008, dated 2014)
Structures can show the parent of a compound that is named as a salt. Where two headings read alike, the source gives them in different places.

Key:
Type in all cases: biochemical
[1] = target: T1, human JAK1 (a.a. 837-1142) (Homo sapiens, UniProt P23458); assay: In vitro JAK kinase assay (HTRF, phosphorylation of a biotinylated peptide), JAK1; conditions: read-out: JAK1 IC50
T1 construct: human JAK1 (a.a. 837-1142); His tag (N); made in house; host or cells: insect cells (baculovirus)
Method in brief: (§1)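 Kinase reactions ran at room temperature for 1 h with ATP matched per isoform (JAK1 90 μM, JAK2 30 μM, JAK3 3 μM). After an EDTA stop, the phosphorylated biotin-peptide was read by HTRF using Eu-Py20 and SA-APC after 40 min binding.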

[2] = target: T2, human JAK2 (a.a. 828-1132) (Homo sapiens, UniProt O60674); assay: In vitro JAK kinase assay (HTRF, phosphorylation of a biotinylated peptide), JAK2
T2 construct: JAK2 (a.a. 828-1132); His tag (N); made in house; host or cells: insect cells (baculovirus)
Method in brief: as §1

[3] = target: T3, human JAK3 (a.a. 781-1124) (Homo sapiens, UniProt P52333); assay: In vitro JAK kinase assay (HTRF, phosphorylation of a biotinylated peptide), JAK3
T3 construct: JAK3 (a.a. 781-1124); His tag (N); made in house; host or cells: insect cells (baculovirus)
Method in brief: as §1

[4] = target: TYK2 (Homo sapiens, UniProt P29597); assay: TYK2 kinase inhibition (Table A1)
[5] = target: T4, Recombinant Human Anaplastic Lymphoma Kinase (Homo sapiens, UniProt Q9UM73); assay: ALK HTRF kinase assay
T4 construct: purchased Invitrogen, Carlsbad, Calif
Method in brief: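 Biotinylated peptide substrate, recombinant human ALK; detection via europium-chelate antibody to phosphotyrosine paired with streptavidin-APC. Potency expressed as IC50 from four-parameter curve fitting.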

[6] = compound at a concentration of 500 nM or 1 mM (not specified), cells shown as percentage
[7] = method AA1 (90 μM ATP) or AA2 (1000 μM ATP), not stated per value
[8] = method AA1 (30 μM ATP) or AA2 (1000 μM ATP), not stated per value
[9] = method AA1 (3 μM ATP) or AA2 (1000 μM ATP), not stated per value
[10] = compound at 500 nM or 1 mM, 90 μM ATP
[11] = Table B1, cells without percent sign

T3 sequence (P52333 781-1124): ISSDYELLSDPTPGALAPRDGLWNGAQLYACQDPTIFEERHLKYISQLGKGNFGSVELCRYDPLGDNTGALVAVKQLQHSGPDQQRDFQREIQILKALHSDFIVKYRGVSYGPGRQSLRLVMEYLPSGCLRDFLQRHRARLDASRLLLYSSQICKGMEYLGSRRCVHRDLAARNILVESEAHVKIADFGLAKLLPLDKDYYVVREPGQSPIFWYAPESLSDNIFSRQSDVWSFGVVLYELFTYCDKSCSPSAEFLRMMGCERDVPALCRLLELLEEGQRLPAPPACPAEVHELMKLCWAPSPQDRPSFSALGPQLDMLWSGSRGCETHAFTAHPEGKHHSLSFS
T1 sequence (P23458 849-1154): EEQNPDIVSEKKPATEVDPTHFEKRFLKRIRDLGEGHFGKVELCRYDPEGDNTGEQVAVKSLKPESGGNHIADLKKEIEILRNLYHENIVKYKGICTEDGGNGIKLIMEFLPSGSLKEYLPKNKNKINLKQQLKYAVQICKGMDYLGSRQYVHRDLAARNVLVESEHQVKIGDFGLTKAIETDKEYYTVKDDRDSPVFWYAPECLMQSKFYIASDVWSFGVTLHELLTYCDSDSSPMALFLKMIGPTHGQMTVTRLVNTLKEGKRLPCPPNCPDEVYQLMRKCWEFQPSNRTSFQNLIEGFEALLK
T2 sequence (O60674 828-1132): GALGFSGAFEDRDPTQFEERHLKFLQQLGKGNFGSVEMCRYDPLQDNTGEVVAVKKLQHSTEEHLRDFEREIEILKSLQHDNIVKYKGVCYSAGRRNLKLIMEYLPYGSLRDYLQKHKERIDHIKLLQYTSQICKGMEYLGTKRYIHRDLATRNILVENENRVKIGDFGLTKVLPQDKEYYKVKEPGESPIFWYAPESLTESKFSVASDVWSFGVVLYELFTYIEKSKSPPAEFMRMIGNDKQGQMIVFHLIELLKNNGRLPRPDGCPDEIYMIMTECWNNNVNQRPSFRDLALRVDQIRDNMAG
Sequence of TYK2 (P29597 whole entry): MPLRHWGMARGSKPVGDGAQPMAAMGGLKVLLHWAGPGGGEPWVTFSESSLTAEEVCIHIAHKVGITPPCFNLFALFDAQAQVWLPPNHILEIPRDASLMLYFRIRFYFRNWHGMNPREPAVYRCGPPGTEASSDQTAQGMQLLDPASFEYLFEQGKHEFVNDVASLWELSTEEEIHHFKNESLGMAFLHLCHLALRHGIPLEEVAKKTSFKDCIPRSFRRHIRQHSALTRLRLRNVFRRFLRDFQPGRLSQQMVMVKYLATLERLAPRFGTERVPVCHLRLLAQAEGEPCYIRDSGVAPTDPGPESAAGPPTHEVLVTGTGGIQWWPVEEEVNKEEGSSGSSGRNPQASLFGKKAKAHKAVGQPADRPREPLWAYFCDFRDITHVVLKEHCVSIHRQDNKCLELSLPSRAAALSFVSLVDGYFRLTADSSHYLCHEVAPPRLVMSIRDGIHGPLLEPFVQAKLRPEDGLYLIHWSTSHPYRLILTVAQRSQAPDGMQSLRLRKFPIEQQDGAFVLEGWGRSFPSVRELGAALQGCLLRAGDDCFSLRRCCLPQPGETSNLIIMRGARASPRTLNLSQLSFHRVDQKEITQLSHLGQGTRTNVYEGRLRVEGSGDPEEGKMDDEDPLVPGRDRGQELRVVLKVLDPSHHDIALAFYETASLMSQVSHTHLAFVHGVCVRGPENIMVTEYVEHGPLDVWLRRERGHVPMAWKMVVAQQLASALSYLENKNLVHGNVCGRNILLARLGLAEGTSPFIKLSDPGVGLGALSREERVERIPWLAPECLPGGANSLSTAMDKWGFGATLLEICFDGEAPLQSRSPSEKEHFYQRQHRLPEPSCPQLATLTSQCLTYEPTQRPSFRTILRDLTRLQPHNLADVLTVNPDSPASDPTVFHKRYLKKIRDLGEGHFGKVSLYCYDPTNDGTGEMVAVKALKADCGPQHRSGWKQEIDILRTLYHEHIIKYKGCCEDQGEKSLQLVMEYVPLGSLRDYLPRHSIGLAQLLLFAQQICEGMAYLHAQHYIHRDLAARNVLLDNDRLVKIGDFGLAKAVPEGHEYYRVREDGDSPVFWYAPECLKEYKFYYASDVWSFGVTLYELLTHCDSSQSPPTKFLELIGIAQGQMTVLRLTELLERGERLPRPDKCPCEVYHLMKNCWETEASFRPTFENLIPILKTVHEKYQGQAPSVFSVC
T4 sequence (Q9UM73 19-1620): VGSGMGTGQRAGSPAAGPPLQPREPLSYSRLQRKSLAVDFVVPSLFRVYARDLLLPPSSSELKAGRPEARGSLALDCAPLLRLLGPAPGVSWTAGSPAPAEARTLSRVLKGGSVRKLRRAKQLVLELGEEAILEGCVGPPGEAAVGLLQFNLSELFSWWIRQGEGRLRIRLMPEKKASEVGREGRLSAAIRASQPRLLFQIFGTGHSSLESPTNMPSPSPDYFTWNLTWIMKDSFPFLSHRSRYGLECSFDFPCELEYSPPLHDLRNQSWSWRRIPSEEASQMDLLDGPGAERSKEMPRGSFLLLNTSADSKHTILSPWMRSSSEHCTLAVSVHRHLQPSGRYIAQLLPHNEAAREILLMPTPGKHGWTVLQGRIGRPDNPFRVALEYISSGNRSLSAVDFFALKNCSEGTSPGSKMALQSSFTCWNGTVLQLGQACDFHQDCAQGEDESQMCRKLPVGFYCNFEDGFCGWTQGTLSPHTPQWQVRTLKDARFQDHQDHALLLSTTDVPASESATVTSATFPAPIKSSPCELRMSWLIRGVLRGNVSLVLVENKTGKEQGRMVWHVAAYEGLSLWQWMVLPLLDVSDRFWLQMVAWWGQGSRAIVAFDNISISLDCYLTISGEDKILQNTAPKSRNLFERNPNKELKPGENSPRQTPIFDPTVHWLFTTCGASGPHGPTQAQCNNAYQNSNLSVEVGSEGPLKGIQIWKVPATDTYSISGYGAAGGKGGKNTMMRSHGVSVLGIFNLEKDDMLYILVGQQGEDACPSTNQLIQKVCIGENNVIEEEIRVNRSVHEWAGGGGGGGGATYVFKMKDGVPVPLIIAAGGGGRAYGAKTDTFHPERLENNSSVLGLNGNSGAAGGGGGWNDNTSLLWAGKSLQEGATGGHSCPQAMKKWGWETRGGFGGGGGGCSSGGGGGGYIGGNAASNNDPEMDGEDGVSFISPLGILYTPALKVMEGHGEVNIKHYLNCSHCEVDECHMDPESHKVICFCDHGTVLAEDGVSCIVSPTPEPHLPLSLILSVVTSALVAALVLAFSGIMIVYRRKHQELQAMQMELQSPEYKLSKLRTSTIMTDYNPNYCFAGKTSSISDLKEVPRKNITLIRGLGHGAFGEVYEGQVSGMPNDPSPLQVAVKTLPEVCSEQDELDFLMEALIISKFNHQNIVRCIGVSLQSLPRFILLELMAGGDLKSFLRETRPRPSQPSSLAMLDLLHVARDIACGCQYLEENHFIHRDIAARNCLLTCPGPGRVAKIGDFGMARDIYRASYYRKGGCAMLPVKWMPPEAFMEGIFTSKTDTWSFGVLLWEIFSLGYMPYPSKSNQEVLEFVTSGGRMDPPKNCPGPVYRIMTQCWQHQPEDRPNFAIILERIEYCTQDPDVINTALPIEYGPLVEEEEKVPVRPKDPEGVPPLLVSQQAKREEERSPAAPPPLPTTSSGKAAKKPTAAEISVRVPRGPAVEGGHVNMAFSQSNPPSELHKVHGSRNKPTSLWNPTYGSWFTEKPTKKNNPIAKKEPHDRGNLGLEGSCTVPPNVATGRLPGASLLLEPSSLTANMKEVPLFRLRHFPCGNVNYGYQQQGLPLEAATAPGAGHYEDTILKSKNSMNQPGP

Structure (SMILES) | IC50 ([1]; Table B1) [nM] | IC50 ([2]; Table B1) [nM] | IC50 ([3]; Table B1) [nM] | IC50 ([4]; Table B1) [nM] | IC50 [1, 7] [nM] | IC50 [2, 8] [nM] | IC50 [3, 9] [nM] | IC50 [4] [nM] | ALK % of inhibition at a concentration of 500 nM or 1 mM [5, 10] [%] | other results
O=C(Nc1ccc2cc1CCc1cccc(c1)Nc1ncc(Cl)c(n1)N2)NC12CC3CC(CC(C3)C1)C2 [Example B127, N-1-Adamantyl-N′-[6-chloro-2,4,8,22-tetraazatetracyclo[14.3.1.1(3,7).1(9,13)]docosa-1(20),3(22),4,6,9(21),10,12,16,18-nonaen-12-yl]urea trifluoroacetate] | 25 | 27 | 182 | 89 |  |  |  |  |  | ALK % of inhibition at a concentration of 500 nM or 1 mM [5, 6]: 6.1%
O=C(CC1CCN(c2nc3cccnc3o2)CC1)Nc1ccc2cc1CCc1cncc(c1)Nc1ncc(Cl)c(n1)N2 [Example A158, N-[6-Chloro-2,4,8,18,22-pentaazatetracyclo[14.3.1.1(3,7).1(9,13)]docosa-1(20),3(22),4,6,9(21),10,12,16,18-nonaen-12-yl]-2-(1-[1,3]oxazolo[5,4-b]pyridin-2-ylpiperidin-4-yl)acetamide tris(trifluoroacetate)] |  |  |  |  | 11 | 244 | > 10000 | 675 | 18 | 
O=C(Nc1ccccc1)c1ccc2cc1CCc1cccc(c1)Nc1ncc(Cl)c(n1)N2 [Example B200, 6-Chloro-N-phenyl-2,4,8,22-tetraazatetracyclo[14.3.1.1(3,7).1(9,13)]docosa-1(20),3(22),4,6,9(21),10,12,16,18-nonaene-12-carboxamide trifluoroacetate] | 82 | 17 | 118 | 85 |  |  |  |  |  | IC50 [5, 11]: 4400 nM
O=C(CN1CCNCC1)Nc1ccc2cc1CCc1cncc(c1)Nc1ncc(Cl)c(n1)N2 [Example A115, N-[6-Chloro-2,4,8,18,22-pentaazatetracyclo[14.3.1.1(3,7).1(9,13)]docosa-1(20),3(22),4,6,9(21),10,12,16,18-nonaen-12-yl]-2-piperazin-1-acetamide tetrakis(trifluoroacetate)] |  |  |  |  | 34 | 42 | 300 | 45 | 20 | 
O=C(Nc1cc2cc(c1)OCCSc1cccc(c1)Nc1nc(ncc1Cl)N2)c1ccncc1 [Example D60, N-[6-Chloro-17-oxa-14-thia-2,4,8,24-tetraazatetracyclo[16.3.1.1(3,7).1(9,13)]tetracosa-1(22),3(24),4,6,9(23),10,12,18,20-nonaen-20-yl]isonicotinamide bis(trifluoroacetate)] |  |  |  |  |  |  |  |  |  | IC50 ([1]; Table D1): 2 nM; IC50 ([2]; Table D1): 0.6 nM; IC50 ([3]; Table D1): 5 nM; IC50 ([4]; Table D1): 1.3 nM; IC50 ([5]; Table D1, 90 μM ATP): 130 nM
O=C1NCc2cccc(c2)Nc2ncc(Cl)c(n2)Nc2cccc1c2 [Example C4, 6-Chloro-2,4,8,15,23-pentaazatetracyclo[15.3.1.1(3,7).1(9,13)]tricosa-1(21),3(23),4,6,9(22),10,12,17,19-nonaen-14-one] |  |  |  |  |  |  |  | > 1000 |  | IC50 [1]: 361 nM; IC50 [2]: 350 nM; IC50 [3]: 317 nM; IC50 [5]: > 1000 nM
CCc1ccccc1NC(=O)Nc1ccc2cc1CCc1cccc(c1)Nc1ncc(Cl)c(n1)N2 [Example B97, N-[6-Chloro-2,4,8,22-tetraazatetracyclo[14.3.1.1(3,7).1(9,13)]docosa-1(20), 3(22),4,6,9(21),10,12,16,18-nonaen-12-yl]-N′-(2-ethylphenyl)urea trifluoroacetate] | 3.9 | 9 | 35 | 16 |  |  |  |  |  | ALK % of inhibition at a concentration of 500 nM or 1 mM [5, 6]: 40%
O=C(Nc1ccc2cc1CCc1cccc(c1)Nc1ncc(Cl)c(n1)N2)C1CCCN(C(=O)c2ccccc2)C1 (stereo not drawn) [Example A48, 1-Benzoyl-N-[6-chloro-2,4,8,22-tetraazatetracyclo[14.3.1.1(3,7).1(9,13)]docosa-1(20),3(22),4,6,9(21),10,12,16,18-nonaen-12-yl]piperidine-3-carboxamide trifluoroacetate] |  |  |  |  | 27 | 13 | 56 | 92 | 28 | 
CSc1ccccc1NC(=O)Nc1ccc2cc1CCc1cccc(c1)Nc1ncc(Cl)c(n1)N2 [Example B107, N-[6-Chloro-2,4,8,22-tetraazatetracyclo[14.3.1.1(3,7).1(9,13)]docosa-1(20), 3(22),4,6,9(21),10,12,16,18-nonaen-12-yl]-N′-[2-(methylthio)phenyl]urea trifluoroacetate] | 0.62 | 2.3 | 16 | 6.8 |  |  |  |  |  | ALK % of inhibition at a concentration of 500 nM or 1 mM [5, 6]: 9.3%
N#Cc1cccc(C(=O)Nc2ccc3cc2CCc2cccc(c2)Nc2ncc(Cl)c(n2)N3)c1 [Example B65, N-[6-Chloro-2,4,8,22-tetraazatetracyclo[14.3.1.1(3,7).1(9,13)]docosa-1(20), 3(22),4,6,9(21),10,12,16,18-nonaen-12-yl]-3-cyanobenzamide trifluoroacetate] | 3.4 | 1.8 | 8.8 | 5.9 |  |  |  |  |  | IC50 [5, 11]: 290 nM
O=C(Cc1ccccc1)Nc1cc2cc(c1)OCCSc1cccc(c1)Nc1nc(ncc1Cl)N2 [Example D64, trifluoroacetate] |  |  |  |  |  |  |  |  |  | IC50 ([1]; Table D1): 3.8 nM; IC50 ([2]; Table D1): 0.2 nM; IC50 ([3]; Table D1): 8.4 nM; IC50 ([4]; Table D1): 3.7 nM; IC50 ([5]; Table D1, 90 μM ATP): 450 nM
COCCNC(=O)Nc1ccc2cc1CCc1cccc(c1)Nc1ncc(Cl)c(n1)N2 [Example B243, N-[6-Chloro-2,4,8,22-tetraazatetracyclo[14.3.1.1(3,7).1(9,13)]docosa-1(20),3(22),4,6,9(21),10,12,16,18-nonaen-12-yl]-N′-(2-methoxyethyl)urea trifluoroacetate] | 0.92 | 1.5 | 16 | 3.1 |  |  |  |  |  | ALK % of inhibition at a concentration of 500 nM or 1 mM [5, 6]: 14%
N#Cc1ccccc1S(=O)(=O)Nc1ccc2cc1CCc1cccc(c1)Nc1ncc(Cl)c(n1)N2 [Example B155, N-[6-Chloro-2,4,8,22-tetraazatetracyclo[14.3.1.1(3,7).1(9,13)]docosa-1(20), 3(22),4,6,9(21),10,12,16,18-nonaen-12-yl]-2-cyanobenzenesulfonamide trifluoroacetate] | 1.3 | 2.4 | 40 | 2.2 |  |  |  |  |  | IC50 [5, 11]: > 1000 nM
O=C(Nc1ccc2cc1CCc1cccc(c1)Nc1ncc(Cl)c(n1)N2)c1ccccn1 [Example B37, N-[6-Chloro-2,4,8,22-tetraazatetracyclo[14.3.1.1(3,7).1(9,13)]docosa-1(20), 3(22),4,6,9(21),10,12,16,18-nonaen-12-yl]pyridine-2-carboxamide bis(trifluoroacetate)] | 7.6 | 8.3 | 87 | 21 |  |  |  |  |  | IC50 [5, 11]: > 10000 nM
Cc1cc(C(=O)N2CCC(CC(=O)Nc3ccc4cc3CCc3cncc(c3)Nc3ncc(Cl)c(n3)N4)CC2)n[nH]1 [Example A163, N-[6-Chloro-2,4,8,18,22-pentaazatetracyclo[14.3.1.1(3,7).1(9,13)]docosa-1(20),3(22),4,6,9(21),10,12,16,18-nonaen-12-yl]-2-{1-[(5-methyl-1H-pyrazol-3-yl)carbonyl]piperidin-4-yl}acetamide bis(trifluoroacetate)] |  |  |  |  | 0.5 | 36 | > 100 | 3 | 29 | 
Cc1n[nH]c(C)c1-c1cc2cc(c1)Nc1ncc(Cl)c(n1)Nc1cccc(c1)OCC2 [Example D30, 6-Chloro-19-(3,5-dimethyl-1H-pyrazol-4-yl)-14-oxa-2,4,8,23-tetraazatetracyclo[15.3.1.1(3,7).1(9,13)]tricosa-1(21),3(23),4,6,9(22),10,12,17,19-nonaene bis(trifluoroacetate)] |  |  |  |  |  |  |  |  |  | IC50 ([1]; Table D1): 4.1 nM; IC50 ([2]; Table D1): 0.6 nM; IC50 ([3]; Table D1): 49 nM; IC50 ([4]; Table D1): 15 nM; IC50 ([5]; Table D1, 90 μM ATP): 157 nM
O=C(CN1CCNCC1)Nc1ccc2cc1CCc1cccc(c1)Nc1ncc(Cl)c(n1)N2 [Example A114, tris(trifluoroacetate)] |  |  |  |  | 25 | 13 | 59 | 33 | 19 | 
NCCC(=O)Nc1ccc2cc1CCc1cccc(c1)Nc1ncc(Cl)c(n1)N2 [Example A108, 3-Amino-N-[6-chloro-2,4,8,22-tetraazatetracyclo[14.3.1.1(3,7).1(9,13)]docosa-1(20),3(22),4,6,9(21),10,12,16,18-nonaen-12-yl]propanamide bis(trifluoroacetate)] |  |  |  |  | 6 | 32 | 26 | 15 | 32 | 
